# Assay results as given in patent publication US20220411726A1, “STABILIZED LIQUID BORON-FREE ENZYME COMPOSITIONS” (Novozymes A/S, priority 2019, published 2022).
# What was measured:
# [1] = test system: amylase (Fortiva Revo from Novozymes); experiment: Turbidity of commercial liquid amylase product after addition of 1,2-hexanediol (nephelometer); format: physicochemical
# Protocol: (§1) The transparency (turbidity) of two commercial liquid protease (Fermax from Novozymes) and amylase (Fortiva Revo from Novozymes) products were evaluated before and after addition of different amounts of 1,2-hexanediol.
# [2] = test system: protease (Fermax from Novozymes); experiment: Turbidity of commercial liquid protease product after addition of 1,2-hexanediol (nephelometer); format: physicochemical
# Protocol: as §1
# aqueous lipase solution = experiment: Physical stability of a lipase solution with 1,2-hexanediol or 1,2-octanediol (visual inspection); format: physicochemical; conditions: lipase 3% w/w, 15% w/w sorbitol, 6% w/w MPG
# Protocol: (§2) Physical stability is the ability to maintain a transparent, preferably clear, composition. This may be evaluated by visual inspection, or by centrifugation. For example, the liquid composition may centrifugated at 1200 G for 10 minutes to determine if a pellet (solid phase) is formed. Alternatively, transparency may be measured as turbidity or haziness, by using a nephelometer to measure NTU to determine light scattering.
# An aqueous lipase solution was formulated with 15% w/w sorbitol and 6% w/w MPG to a final enzyme protein concentration of 3% w/w. Two samples were prepared by adding 1% w/w 1,2-hexanediol or 0.3% w/w 1,2-octanediol to the lipase solution.
# [3] = test system: aqueous protease solution; experiment: Physical stability of a protease solution with 1,2-hexanediol or glycerol (visual inspection and NTU); format: physicochemical; conditions: additive 10% w/w; protease 6.8% w/w; 4 weeks at 25° C.
# Protocol: as §2
# (§3) An aqueous protease solution and an aqueous pectate lyase solution were formulated with 10% w/w water, 10% w/w 1,2-hexanediol, or 10% w/w glycerol to a final enzyme protein concentration of 6.8% w/w and 8.1% w/w, respectively. The physical stability was evaluated after storage for 4 weeks at 25° C., by visual inspection and by NTU measurements, as shown in Table 4.
# [4] = test system: aqueous pectate lyase solution; experiment: Physical stability of a pectate lyase solution with 1,2-hexanediol or glycerol (visual inspection and NTU); format: physicochemical; conditions: additive 10% w/w; pectate lyase 8.1% w/w; 4 weeks at 25° C.
# Protocol: as §2, §3
# Mannanase = experiment: Increase in enzyme solubility (supernatant enzyme activity), mannanase; format: physicochemical; conditions: mannanase suspension, 2 hours at room temperature
# Protocol: (§4) An aqueous enzyme solution produced via fermentation of microorganism and recovered by removal of cells were concentrated using ultrafiltration to form a supersaturated protein solution. The solution was cooled below 5° C. for more than 24 hours to generate protein precipitate. The protein precipitate was suspended in the cold solution by shaking before use. Water and 1,2-hexanediol or glycerol were added to the protein suspension to obtain a diluted protein suspension with the indicated concentration of 1,2-hexanediol or glycerol while keeping the dilution of the protein suspension constant (70% w/w protein suspension to 30% w/w water/1,2-hexanediol/glycerol). The diluted protein suspensions were mixed for 2 hours at room temperature on a magnetic stirred followed by centrifugation to generate a clear supernatant. The obtained supernatant was analyzed for enzyme activity. The data in Table 5 show how much the enzyme solubility (enzyme activity) has increased compared to the reference sample, which only contains water.
# Protease = experiment: Increase in enzyme solubility (supernatant enzyme activity), protease; format: physicochemical; conditions: protease suspension, 2 hours at room temperature
# Protocol: as §4
# Pectate lyase = experiment: Increase in enzyme solubility (supernatant enzyme activity), pectate lyase; format: physicochemical; conditions: pectate lyase suspension, 2 hours at room temperature
# Protocol: as §4
# protease (subtilisin) = experiment: Enzymatic stability: residual activity of protease after 4 weeks storage; format: physicochemical
# Protocol: Enzymatic stability is the ability to maintain enzymatic activity after storage. This may be determined by measuring the enzymatic activity before and after storage (for example, 4 weeks storage at 25° C.) to determine how much activity is lost. For practical purposes, the residual activity may be determined by comparing the activity of a stored sample and a frozen reference sample, which are analyzed at the same time to eliminate analytical day-to-day variation.
# An aqueous protease (subtilisin) solution was produced via fermentation of microorganism, recovered by removal of cells and concentrated using ultrafiltration. Water and 1,2-hexanediol were added to the protease solution to obtain a diluted protease solution with the indicated concentration of 1,2-hexanediol while keeping the dilution of the protease solution constant (70 w/w % protease solution to 30% w/w water/1,2-hexanediol). The diluted protease solutions were incubated in closed vials at −18° C., 25° C. and 40° C. for 4 weeks. The protease activity was measured in the stored samples and residual activity calculated by using protease activity in samples stored at −18° C. as reference.
# [5] = test system: Escherichia coli, Pseudomonas aeruginosa, Salmonella havana, Acinetobacter spp., Staphylococcus aureus, Staphylococcus xylosus, Enterococcus faecium; experiment: Microbial stability challenge of protease formulation, bottle 1; format: cell-based; conditions: inoculated to 10^5 CFU/mL
# Protocol: (§5) An aqueous protease (subtilisin) solution was formulated with 40% w/w glycerol at pH 6.0 to a final enzyme protein concentration of 5.5% w/w. Two samples were prepared by adding 4% w/w 1,2-hexanediol or 0.3% w/w 1,2-octanediol to the protease solution.
# (§6) This was done by challenging the formulations with the microorganisms in Table 7. Each of the three bottles in Table 8 were inoculated to a total of 10^5 CFU/mL of the test microorganisms.
# (§7) The bottles were analyzed for CFU/mL after 2 and 4 weeks of incubation at 20-25° C. CFU (colony forming units) per mL was measured using standard microbiological methods.
# [6] = test system: Lactobacillus buchneri, Lactobacillus para paracasei; experiment: Microbial stability challenge of protease formulation, bottle 2; format: cell-based; conditions: inoculated to 10^5 CFU/mL
# Protocol: as §5, §6, §7
# [7] = test system: Aspergillus niger, Candida parapsilosis, Candida famata; experiment: Microbial stability challenge of protease formulation, bottle 3; format: cell-based; conditions: inoculated to 10^5 CFU/mL
# Protocol: as §5, §6, §7
# aqueous amylase solution = experiment: Physical stability of an amylase solution with 1,2-octanediol (visual inspection and NTU); format: physicochemical; conditions: 0.3% w/w 1,2-octanediol, amylase 4.3% w/w, 40% w/w glycerol, pH 4.8
# Protocol: as §2
# An aqueous amylase solution was formulated with 40% w/w glycerol at pH 4.8 to a final enzyme protein concentration of 4.3% w/w. A sample was prepared by adding 0.3% w/w 1,2-octanediol to the amylase solution, and the physical stability was evaluated by visual inspection and NTU measurement, as shown in Table 2.
# [8] = 4% w/w 1,2-hexanediol, 2 weeks at 20-25° C.
# [9] = 4% w/w 1,2-hexanediol, 4 weeks at 20-25° C.
# [10] = 0.3% w/w 1,2-octanediol, 2 weeks at 20-25° C.
# [11] = 0.3% w/w 1,2-octanediol, 4 weeks at 20-25° C.
structure (smiles),measurement,setting,value
"CCCCC(O)CO (stereo not drawn) [1,2-hexanediol]",Turbidity,"[1]; 5% w/w 1,2-hexanediol added to liquid amylase product",17.2 NTU
same,Turbidity,"[1]; 10% w/w 1,2-hexanediol added to liquid amylase product",14.6 NTU
same,Turbidity,"[2]; 5% w/w 1,2-hexanediol added to liquid protease product",21.2 NTU
same,Turbidity,"[2]; 10% w/w 1,2-hexanediol added to liquid protease product",11.7 NTU
same,Physical stability by visual inspection,"aqueous lipase solution; 1% w/w 1,2-hexanediol, 4 weeks at 5° C.",clear
same,Physical stability by visual inspection,"aqueous lipase solution; 1% w/w 1,2-hexanediol, 4 weeks at 25° C.",haze
same,Physical stability by visual inspection,"aqueous lipase solution; 1% w/w 1,2-hexanediol, 4 weeks at 40° C.",precipitate
same,Turbidity,[3],9.4 NTU
same,Visual score,[3],clear
same,Turbidity,[4],31.2 NTU
same,Visual score,[4],haze
same,Increase in enzyme solubility (enzyme activity) compared to the reference sample,Mannanase; additive 2% w/w,7%
same,Increase in enzyme solubility (enzyme activity) compared to the reference sample,Mannanase; additive 5% w/w,48%
same,Increase in enzyme solubility (enzyme activity) compared to the reference sample,Protease; additive 2% w/w,11%
same,Increase in enzyme solubility (enzyme activity) compared to the reference sample,Protease; additive 5% w/w,47%
same,Increase in enzyme solubility (enzyme activity) compared to the reference sample,Pectate lyase; additive 2% w/w,32%
same,Increase in enzyme solubility (enzyme activity) compared to the reference sample,Pectate lyase; additive 5% w/w,66%
same,Residual activity of protease after 4 weeks storage,"protease (subtilisin); 2% w/w 1,2-hexanediol, 25° C.",48%
same,Residual activity of protease after 4 weeks storage,"protease (subtilisin); 2% w/w 1,2-hexanediol, 40° C.",8%
same,Residual activity of protease after 4 weeks storage,"protease (subtilisin); 2% w/w 1,2-hexanediol, −18° C. (reference temperature for the calculation)",100%
same,Residual activity of protease after 4 weeks storage,"protease (subtilisin); 5% w/w 1,2-hexanediol, 25° C. (room temperature)",77%
same,Residual activity of protease after 4 weeks storage,"protease (subtilisin); 5% w/w 1,2-hexanediol, 40° C.",14%
same,Residual activity of protease after 4 weeks storage,"protease (subtilisin); 5% w/w 1,2-hexanediol, −18° C. (reference temperature for the calculation)",100%
same,"Microbial stability, measured as CFU/mL",[5]; [8],<1.0 × 10^2 CFU/mL
same,"Microbial stability, measured as CFU/mL",[5]; [9],<1.0 × 10^2 CFU/mL
same,"Microbial stability, measured as CFU/mL",[6]; [8],<1.0 × 10^2 CFU/mL
same,"Microbial stability, measured as CFU/mL",[6]; [9],<1.0 × 10^2 CFU/mL
same,"Microbial stability, measured as CFU/mL",[7]; [8],<1.0 × 10^2 CFU/mL
same,"Microbial stability, measured as CFU/mL",[7]; [9],<1.0 × 10^2 CFU/mL
"CCCCCCC(O)CO (stereo not drawn) [1,2-octanediol]",Turbidity,aqueous amylase solution; 4 weeks at 5° C.,19.1 NTU
same,Visual score,aqueous amylase solution; 4 weeks at 5° C.,haze
same,Turbidity,aqueous amylase solution; 4 weeks at 25° C.,11.9 NTU
same,Visual score,aqueous amylase solution; 4 weeks at 25° C.,haze
same,Turbidity,aqueous amylase solution; 4 weeks at 40° C.,12.7 NTU
same,Visual score,aqueous amylase solution; 4 weeks at 40° C.,haze
same,Physical stability by visual inspection,"aqueous lipase solution; 0.3% w/w 1,2-octanediol, 4 weeks at 5° C.",clear
same,Physical stability by visual inspection,"aqueous lipase solution; 0.3% w/w 1,2-octanediol, 4 weeks at 25° C.",clear
same,Physical stability by visual inspection,"aqueous lipase solution; 0.3% w/w 1,2-octanediol, 4 weeks at 40° C.",haze
same,"Microbial stability, measured as CFU/mL",[5]; [10],3.0 × 10^2 CFU/mL
same,"Microbial stability, measured as CFU/mL",[5]; [11],<1.0 × 10^2 CFU/mL
same,"Microbial stability, measured as CFU/mL",[6]; [10],<1.0 × 10^2 CFU/mL
same,"Microbial stability, measured as CFU/mL",[6]; [11],<1.0 × 10^2 CFU/mL
same,"Microbial stability, measured as CFU/mL",[7]; [10],7.0 × 10^2 CFU/mL
same,"Microbial stability, measured as CFU/mL",[7]; [11],<1.0 × 10^2 CFU/mL
"OCC(O)CO [Glycerol, glycerol, reference compound]",Turbidity,[3],71.2 NTU
same,Visual score,[3],precipitate
same,Turbidity,[4],540 NTU
same,Visual score,[4],precipitate
same,Increase in enzyme solubility (enzyme activity) compared to the reference sample,Mannanase; additive 2% w/w,10%
same,Increase in enzyme solubility (enzyme activity) compared to the reference sample,Mannanase; additive 5% w/w,41%
same,Increase in enzyme solubility (enzyme activity) compared to the reference sample,Protease; additive 2% w/w,0%
same,Increase in enzyme solubility (enzyme activity) compared to the reference sample,Protease; additive 5% w/w,3%
same,Increase in enzyme solubility (enzyme activity) compared to the reference sample,Pectate lyase; additive 2% w/w,10%
same,Increase in enzyme solubility (enzyme activity) compared to the reference sample,Pectate lyase; additive 5% w/w,32%
